Values of other authors as cited in US20090018020A1, “USE OF COMPOUNDS COMPRISING A POLYSACCHARIDE STRUCTURE AS BIOFERTILISER AND PHYTOSANITARY PRODUCTS” (CENTRE NATIONAL DE LA RECHERCHE SCIENTIFIQUE, priority 2002, published 2009).

Conditions: literature (Mc Dougall and Fry 1989, 1990)

Substance | auxinic or antiauxinic effect
XXLG | auxinic effect
XLLG | auxinic effect
